In patent US7420001B2 (Wyeth, priority 2003, dated 2008) one finds IC50 data, which are given here for three molecules.

The target in one assay is T1, Aggrecanase-1 (Homo sapiens, UniProt O75173).
T1 sequence (O75173 213-837): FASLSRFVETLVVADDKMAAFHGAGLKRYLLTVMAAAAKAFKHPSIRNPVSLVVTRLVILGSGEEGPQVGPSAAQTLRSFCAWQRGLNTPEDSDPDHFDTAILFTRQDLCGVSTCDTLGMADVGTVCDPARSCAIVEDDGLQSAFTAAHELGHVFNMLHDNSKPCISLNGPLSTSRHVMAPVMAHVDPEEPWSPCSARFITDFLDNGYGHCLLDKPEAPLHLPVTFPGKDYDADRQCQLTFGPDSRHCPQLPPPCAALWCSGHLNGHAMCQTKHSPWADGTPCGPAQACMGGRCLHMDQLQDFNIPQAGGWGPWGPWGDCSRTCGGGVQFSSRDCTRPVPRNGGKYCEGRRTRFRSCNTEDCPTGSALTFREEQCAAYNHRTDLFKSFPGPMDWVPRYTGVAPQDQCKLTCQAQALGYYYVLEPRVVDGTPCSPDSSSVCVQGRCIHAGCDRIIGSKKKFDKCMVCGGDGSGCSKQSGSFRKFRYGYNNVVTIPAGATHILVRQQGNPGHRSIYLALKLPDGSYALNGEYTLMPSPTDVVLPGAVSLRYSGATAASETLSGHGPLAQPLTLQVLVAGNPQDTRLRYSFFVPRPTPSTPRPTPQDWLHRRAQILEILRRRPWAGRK
The experiment in a line: Aggrecanase-1 FRET assay. The format is biochemical. The conditions noted are these: rAgg1, WAAG-3R substrate; read-out: AGG-1 IC50. How it is done: h. Aggrecanase-1 FRET Assay:
The following protocol was used: • Fluorimeter was started and temperature set to 30° C., about 30 min before setting up the assay. The following reagents are used: • Buffer: 50 mM HEPES, pH 7.5, 100 mM NaCl, 5 mM CaCl2, 0.1% CHAPS, 5% glycerol. • rAgg1: 5 μg/ml (final concentration in the assay): • Substrate: WAAG-3R (MWT=1645.8, Anaspec, stored at 4° C.). Make a stock at 2 mg/ml in 100% DMSO. Measure the absorbance at 354 nm (ε=18172 M^−1 cm^−1) to determine the exact concentration. Dilute to 62.5 μM in buffer. Store unused 100% DMSO stock at −80° C. Final concentration of substrate in the assay is 25 μM. […] Make up inhibitors at 10× starting concentration in 100% DMSO. Perform serial dilutions (in duplicate) across the nunc plate in 100% DMSO; • Dilution plates: Nunc, polypropylene low binding (Nalgene) • Assay plate: Fluoronunc (Nalgene) • Fluorimeter: GeminiXS (Molecular Devices).; • The assay is performed as follows: The plates are set up so that the final column (12) is used for controls. Total reaction volume is 100 μl. Each compound is assayed in duplicate, so 4 compounds are screened per plate. • 1) Add buffer to the entire 96-well plate (30 ρl/well). • 2) Dilute rAgg1 to 25 μg/ml buffer just prior to addition on the plate. Add 20 μl/well to all wells. Mix 6 times. • 3) Add 10 μl/well of 10× inhibitors from the working plate, except column 12. Mix 6 times. […] Mix 6 times.
The reaction is monitored for 30-40 min at 30° C. λex: 340 nm and λ em: 420 nm). The fluorescence is linear during this time and the slope of the line (Vmax/sec) represents the initial reaction rate, ν. The maximal rate of cleavage of substrate is determined in the absence of inhibitor. The percent inhibition of activity in the presence of inhibitor is calculated as follows:
[formula] The IC50 was obtained by fitting the initial rate, ν, or % inhibition at each concentration of inhibitor to the following equation in Excel. y=(a−d)/(1+C/IC50)^n)+d This model describes a sigmoidal curve with an adjustable baseline, […]. y is the % inhibition or initial rate of reaction, C is the concentration of inhibitor under test. a is the limiting response as C approaches zero. […] The sign of n is positive when the response increases with increasing dose and is negative when the response decreases with increasing dose (inhibition).

The target in the next assay is T2, MMP-13 (Homo sapiens, UniProt P45452).
T2 construct: made in house
The experiment in a line: In-vitro fluorescence assay of MMP-13 activity. The format is biochemical. The conditions noted are these: recombinant human catalytic domain of MMP-13; read-out: MMP-13 IC50.

In another assay the target is T3, MMP-7 (Homo sapiens, UniProt P09237).
T3 construct: Active, recombinant human MMP-7 was purchased from Calbiochem (catalog #444270; expressed in E. coli, 19 kDa); purchased Calbiochem 444270; host or cells: E. coli
T3 sequence (P09237 95-267): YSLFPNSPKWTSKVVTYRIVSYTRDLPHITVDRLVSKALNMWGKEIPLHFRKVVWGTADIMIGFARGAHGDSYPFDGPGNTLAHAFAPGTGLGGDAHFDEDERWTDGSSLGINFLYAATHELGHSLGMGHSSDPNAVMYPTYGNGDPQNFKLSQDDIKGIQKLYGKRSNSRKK
Kind of assay: MMP-7 activity assay. The format is biochemical. The conditions noted are these: recombinant human MMP-7.

The target in another assay is T4, MMP-12 (Homo sapiens, UniProt P39900).
T4 construct: made in house
Kind of assay: In vitro fluorescence assay of MMP-12 activity. The note with it: recombinant human MMP-12. The format is biochemical.

A further assay has as its target T5, MMP-9 (Homo sapiens, UniProt P14780).
T5 construct: Active, recombinant human MMP-9 (83 kDa) was purchased from Calbiochem (catalog #PF024); purchased Calbiochem PF024
Kind of assay: MMP-9 activity assay. The format is biochemical. The conditions noted are these: recombinant human MMP-9.

The target in another assay is T6, MMP-2 (Homo sapiens, UniProt P08253).
T6 construct: purchased Oncogene Research Products (Calbiochem) PF023
T6 sequence (P08253 110-660): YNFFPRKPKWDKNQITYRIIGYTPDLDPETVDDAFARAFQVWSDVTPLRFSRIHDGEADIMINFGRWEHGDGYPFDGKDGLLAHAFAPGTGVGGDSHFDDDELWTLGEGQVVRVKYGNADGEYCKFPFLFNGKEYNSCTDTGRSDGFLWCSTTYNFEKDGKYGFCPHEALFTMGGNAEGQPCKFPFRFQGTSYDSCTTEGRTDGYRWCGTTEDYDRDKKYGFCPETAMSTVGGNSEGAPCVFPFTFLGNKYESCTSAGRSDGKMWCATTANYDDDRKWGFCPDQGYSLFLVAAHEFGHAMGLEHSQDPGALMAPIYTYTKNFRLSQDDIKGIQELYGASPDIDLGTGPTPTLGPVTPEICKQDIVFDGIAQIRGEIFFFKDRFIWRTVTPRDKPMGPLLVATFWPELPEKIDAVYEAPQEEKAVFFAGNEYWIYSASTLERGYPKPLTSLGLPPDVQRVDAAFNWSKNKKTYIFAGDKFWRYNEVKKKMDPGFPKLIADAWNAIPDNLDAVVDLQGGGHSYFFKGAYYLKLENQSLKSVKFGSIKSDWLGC
Kind of assay: In-vitro fluorescence assay of MMP-2 activity. The format is biochemical. The note with it: recombinant human MMP-2; read-out: MMP-2 IC50.

The next assay has as its target T7, MMP-14 (Homo sapiens, UniProt P50281).
T7 construct: 20 kDa; purchased Chemicon International, Inc. CC 1041
The experiment in a line: In-vitro fluorescence assay of MMP-14 activity. The note with it: recombinant human catalytic domain of MMP-14. The format is biochemical.

The target of another assay is T8, MMP-1 (Homo sapiens, UniProt P03956).
T8 sequence (P03956 100-269 limits assumed): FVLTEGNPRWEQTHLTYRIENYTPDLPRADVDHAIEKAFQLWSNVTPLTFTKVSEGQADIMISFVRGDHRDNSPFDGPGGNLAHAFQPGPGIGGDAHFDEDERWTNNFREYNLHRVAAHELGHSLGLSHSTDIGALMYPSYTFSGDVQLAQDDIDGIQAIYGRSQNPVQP

Bounds are passed on as bounds.

T5 sequence (P14780 107-707 limits assumed): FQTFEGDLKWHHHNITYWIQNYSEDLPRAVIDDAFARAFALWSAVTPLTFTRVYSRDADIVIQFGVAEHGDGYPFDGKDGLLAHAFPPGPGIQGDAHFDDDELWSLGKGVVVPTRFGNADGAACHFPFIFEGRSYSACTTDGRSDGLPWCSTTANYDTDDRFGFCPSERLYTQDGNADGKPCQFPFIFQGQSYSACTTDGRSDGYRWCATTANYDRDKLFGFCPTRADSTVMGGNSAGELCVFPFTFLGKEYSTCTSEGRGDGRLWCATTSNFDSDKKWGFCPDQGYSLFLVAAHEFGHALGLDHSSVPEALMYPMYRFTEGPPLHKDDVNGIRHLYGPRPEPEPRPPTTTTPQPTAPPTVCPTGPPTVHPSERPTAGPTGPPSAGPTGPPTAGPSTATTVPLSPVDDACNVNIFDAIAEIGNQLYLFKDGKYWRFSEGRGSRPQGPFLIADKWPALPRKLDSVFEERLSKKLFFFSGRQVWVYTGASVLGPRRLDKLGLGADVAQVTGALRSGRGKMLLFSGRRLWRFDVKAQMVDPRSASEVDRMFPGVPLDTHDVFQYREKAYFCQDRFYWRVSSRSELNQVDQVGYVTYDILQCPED
T4 sequence (P39900 106-280 limits assumed): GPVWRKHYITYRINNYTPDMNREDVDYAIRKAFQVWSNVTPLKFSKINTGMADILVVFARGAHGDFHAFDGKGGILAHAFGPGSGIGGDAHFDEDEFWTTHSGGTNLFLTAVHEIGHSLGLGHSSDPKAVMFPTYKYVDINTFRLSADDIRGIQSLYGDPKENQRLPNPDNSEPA
Method for MMP-12: A continuous, assay was used in which the substrate is a synthetic peptide containing a fluorescent group (7-methoxycoumarin; Mca) which is quenched by energy transfer to a 2,4-dinitrophenyl group. […] The concentration of the substrate stock was spectrophotometrically determined using the extinction coefficient at 410 nm of 7500 M^−1cm^−1. The assay buffer (pH 7.4) consisted of 50 mM Hepes, 100 mM NaCl, 5 mM CaCl2, and 0.005% Brij-35. […] The plates were then incubated at room temperature for 30 minutes. The enzymatic reactions were initiated by adding substrate to a final concentration of 20 μM and they were mixed by pipetting up and down. The final DMSO concentration in the assay was 10% and the final, total assay volume was 200 μl.
Method for MMP-7: (§1) A continuous assay was used in which the substrate is a synthetic peptide containing a fluorescent group (7-methoxycoumarin; Mca) that is quenched by energy transfer to a 2,4-dinitrophenyl group. […] The concentration of the substrate stock was spectrophotometrically determined using the extinction coefficient at 410 nm of 7500 M^−1cm^−1. The assay buffer (pH 7.4) consisted of 50 mM Hepes, 100 mM NaCl, 5 mM CaCl2, and 0.005% Brij-35. Each well of black polystyrene 96-well plates contained a reaction consisting of assay buffer, purified MMP (final concentration of 1.0 nM, prepared by dilution with assay buffer), and varied concentrations of inhibitor (prepared by serial dilution in DMSO in 96-well polypropylene plates). The plates were then incubated at room temperature for 30 minutes. […] The final DMSO concentration in the assay was 10% and the final, total assay volume was 200 μl. […] Plots of the inhibitor concentration vs. the initial cleavage rate were fit to the following equation in order to determine IC50 values: y=Vmax*(1−(x^n/(K^n+x^n))), whereby x=inhibitor concentration, y=initial rate, Vmax=initial rate in the absence of inhibitor, n=slope factor, and K=IC50 for the inhibition curve.
Method for MMP-9: as §1
Active, recombinant human MMP-9 (83 kDa) was purchased from Calbiochem (catalog #PF024).

The term IC50 denotes the concentration that inhibits the measured activity by half. Turning to `COCCCc1cccc2oc(C(=O)Nc3ccc(-c4ccc(S(=O)(=O)N[C@H](C(=O)O)C(C)C)cc4)cc3)c(C)c12` [Example 30, L-2-(4′-{[4-(3-Methoxy-propyl)-3-methyl-benzofuran-2-carbonyl]-amino}-biphenyl-4-sulfonylamino)-3-methyl-butyric acid], the 50% inhibitory concentration (IC50) is 14000 nM on Aggrecanase-1; 11 nM at MMP-13; 6000 nM at MMP-7; 85 nM at MMP-12; 1500 nM on MMP-9; 4000 nM at MMP-2. The IC50 at MMP-14 was 26200 nM; against MMP-1, > 18000 nM.
Consider `COc1c(Br)ccc2oc(COc3ccc(-c4ccc(S(=O)(=O)N[C@@H](C(=O)O)C(C)C)cc4)cc3)c(C)c12` [Example 136, D-2-[4′-(5-Bromo-4-methoxy-3-methyl-benzofuran-2-ylmethoxy)-biphenyl-4-sulfonylamino]-3-methyl-butyricacid], for which the IC50 at Aggrecanase-1 is 430 nM; on MMP-13, 1.8 nM; at MMP-7, 1100 nM; on MMP-12, 20 nM; on MMP-9, > 7000 nM; on MMP-2, 135 nM. Further, the figures for the IC50 at MMP-14 and on MMP-1 were 5000 nM and 400000 nM, respectively.
Take `CCC(C)Oc1cccc2oc(C(=O)Nc3ccc(-c4ccc(S(=O)(=O)N[C@H](C(=O)O)C(C)C)cc4)cc3)c(C)c12` (stereo partly drawn) [Example 53, L-2-{4′-[(4-sec-Butoxy-3-methyl-benzofuran-2-carbonyl)-amino]-biphenyl-4-sulfonylamino}-3-methyl-butyric acid]: the IC50 at MMP-13 is 17 nM; on MMP-7, 2600 nM; at MMP-9 it was > 4000 nM; on MMP-2, 10000 nM.
